Data reported in US5140009A (Tap Pharmaceuticals, Inc., priority 1990, dated 1992).
pKi: −log10 of the molar value. Numbered stars: 1 amine (or outer) side, 2 acyl side, 3 side chain; on linkers, the order of the positions; unused ones are H or OH. Square brackets hold non-standard residues; d marks the D form. Peptide text beside a SMILES is read from it. * marks the point of attachment. X8 = CN1CCN(S(=O)(=O)N[C@@H](Cc2ccccc2)C(=O)*)CC1; Propanoyl(3-(4-F-phenyl)) = O=C(CCc1ccc(F)cc1)*; Phe(4-Cl) = N[C@@H](Cc1ccc(Cl)cc1)C(=O)O; 1Nal = N[C@@H](Cc1cccc2ccccc12)C(=O)O; d2Nal = N[C@H](Cc1ccc2ccccc2c1)C(=O)O; NMeY = CN[C@@H](Cc1ccc(O)cc1)C(=O)O; Piperazinyl(4-Me) = CN1CCN(*)CC1; NHPhenethyl = c1ccc(CCN*)cc1; Nicotinoyl = O=C(c1cccnc1)*; X3 = O=C(CCc1ccc2ccccc2c1)*; X5 = C1CCC(N(C2CCCCC2)*)CC1; NMeS = CN[C@@H](CO)C(=O)O; Morpholide = C1CN(*)CCO1; NHcHex = C1CCC(N*)CC1; CO = O=C([*:1])[*:2]; For = O=C*

molecular target: T1, LHRH receptors (Rattus norvegicus, UniProt P30969); experiment: Receptor Binding (radioligand receptor binding assay); details: Receptor Binding pkI, table 3; rat pituitary membranes, radioiodinated [D-Leu^6 -des Gly^10 ]-LHRH ethyl amide 50 pM, 2 hours at 4° C.
T1 construct: Pituitary membranes containing LHRH receptors are prepared in batches from quick-frozen rat pituitaries; tissue Hilltop Labs; host or cells: rat pituitary membranes
T1 sequence (P30969 1-327): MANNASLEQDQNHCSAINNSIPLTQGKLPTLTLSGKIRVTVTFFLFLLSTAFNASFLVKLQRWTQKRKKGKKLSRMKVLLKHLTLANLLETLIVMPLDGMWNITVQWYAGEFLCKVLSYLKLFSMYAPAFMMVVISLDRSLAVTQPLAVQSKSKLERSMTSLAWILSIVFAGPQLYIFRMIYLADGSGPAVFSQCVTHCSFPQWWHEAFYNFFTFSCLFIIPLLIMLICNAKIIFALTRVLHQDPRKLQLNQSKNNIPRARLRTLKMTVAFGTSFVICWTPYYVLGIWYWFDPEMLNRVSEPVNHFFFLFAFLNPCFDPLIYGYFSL

Structure (SMILES) | pKi
CCNC(=O)[C@@H]1CCCN1C(=O)[C@H](CCCNC(=N)N)NC(=O)[C@H](CC(C)C)NC(=O)[C@@H](Cc1c[nH]c2ccccc12)NC(=O)[C@H](Cc1ccc(O)cc1)NC(=O)[C@H](CO)NC(=O)[C@H](Cc1c[nH]c2ccccc12)NC(=O)[C@H](Cc1ccccc1)NC(=O)N(C1CCCCC1)C1CCCCC1 [Compound 126, (2-9)[N-(N-alpha-Dicyclohexylaminocarbonyl)-Phe^2 -D-Trp^6 -Pro^9 NHEt]LHRH] ({X5-CO}-FWSY[dW]LRP-NHEt) | 7.43

same assay, conditions: table 3; rat pituitary membranes, radioiodinated [D-Leu^6 -des Gly^10 ]-LHRH ethyl amide 50 pM, 2 hours at 4° C.; read-out: Receptor Binding pkI (converted)

Ki | Structure (SMILES)
2.75 nM | CCNC(=O)[C@@H]1CCCN1C(=O)[C@H](CCCNC(=N)N)NC(=O)[C@H](CC(C)C)NC(=O)[C@@H](Cc1c[nH]c2ccccc12)NC(=O)[C@H](Cc1ccc(O)cc1)NC(=O)[C@H](CO)NC(=O)[C@H](Cc1c[nH]c2ccccc12)NC(=O)[C@@H](Cc1ccc2ccccc2c1)NC(=O)N1CCOCC1 [Compound 111, (2-9)[N-(N-alpha-Morpholinocarbonyl)-D-2-Nal^2 -D-Trp^6 -Pro^9 NHEt]LHRH] ({Morpholide-CO}-[d2Nal]WSY[dW]LRP-NHEt)
0.316 nM | CCNC(=O)[C@@H]1CCCN1C(=O)[C@H](CCCNC(=N)N)NC(=O)[C@H](CC(C)C)NC(=O)[C@@H](Cc1c[nH]c2ccccc12)NC(=O)[C@H](Cc1ccc(O)cc1)NC(=O)[C@H](CO)NC(=O)[C@H](Cc1c[nH]c2ccccc12)NC(=O)[C@H](Cc1ccc(Cl)cc1)NC(=O)N1CCOCC1 [Compound 112, (2-9)[N-(N-alpha-Morpholinocarbonyl)-4-Cl -Phe^2 -D-Trp^6 -Pro^9 NHEt]LHRH] ({Morpholide-CO}-[Phe(4-Cl)]WSY[dW]LRP-NHEt)
0.00575 nM | CCNC(=O)[C@@H]1CCCN1C(=O)[C@H](CCCNC(=N)N)NC(=O)[C@H](CC(C)C)NC(=O)[C@@H](Cc1c[nH]c2ccccc12)NC(=O)[C@H](Cc1ccc(O)cc1)N(C)C(=O)[C@H](CO)NC(=O)[C@H](Cc1c[nH]c2ccccc12)NC(=O)[C@H](Cc1ccccc1)NC(=O)N1CCOCC1 [Compound 114, (2-9)[N-(N-alpha-Morpholinocarbonyl)-Phe^2 -N-Me-Tyr^5 -D-Trp^6-Pro^9 -NHEt]LHRH] ({Morpholide-CO}-FWS[NMeY][dW]LRP-NHEt)
2.24 nM | CCNC(=O)[C@@H]1CCCN1C(=O)[C@H](CCCNC(=N)N)NC(=O)[C@H](CC(C)C)NC(=O)[C@@H](Cc1c[nH]c2ccccc12)NC(=O)[C@H](Cc1ccc(O)cc1)NC(=O)[C@H](CO)N(C)C(=O)[C@H](Cc1c[nH]c2ccccc12)NC(=O)[C@H](Cc1ccccc1)NC(=O)N1CCOCC1 [Compound 115, (2-9)[N-(N-alpha-Morpholinocarbonyl)-Phe^2 -N-Me-Ser^4 -D-Trp^6-Pro^9 -NHEt]LHRH] ({Morpholide-CO}-FW[NMeS]Y[dW]LRP-NHEt)
5.01 nM | CCNC(=O)[C@@H]1CCCN1C(=O)[C@H](CCCNC(=N)N)NC(=O)[C@H](CC(C)C)NC(=O)[C@@H](Cc1c[nH]c2ccccc12)NC(=O)[C@H](Cc1ccc(O)cc1)NC(=O)[C@H](CO)NC(=O)[C@H](Cc1ccc(O)cc1)N(C)C(=O)[C@H](Cc1ccccc1)NC(=O)N1CCOCC1 [Compound 116, (2-9)[N-(N-alpha-Morpholinocarbonyl)-Phe^2 -N-Me-Tyr^3 -D-Trp^6-Pro^9 NHEt]LHRH] ({Morpholide-CO}-F[NMeY]SY[dW]LRP-NHEt)
0.447 nM | CCNC(=O)[C@@H]1CCCN1C(=O)[C@H](CCCNC(=N)N)NC(=O)[C@H](CC(C)C)NC(=O)[C@@H](Cc1c[nH]c2ccccc12)NC(=O)[C@H](Cc1ccc(O)cc1)NC(=O)[C@H](CO)NC(=O)[C@H](Cc1c[nH]c2ccccc12)NC(=O)[C@H](Cc1ccccc1)NC(=O)N1CCN(C)CC1 [Compound 128, (2-9)[N-(N-alpha-N-methylpiperazinocarbonyl)-Phe^2 -D-Trp^6 -Pro^9 NHEt]LHRH] ({Piperazinyl(4-Me)-CO}-FWSY[dW]LRP-NHEt)

The remaining lines, values behind:

Structure (SMILES) | Ki
CCNC(=O)[C@@H]1CCCN1C(=O)[C@H](CCCNC(=N)N)NC(=O)[C@H](CC(C)C)NC(=O)[C@@H](Cc1c[nH]c2ccccc12)NC(=O)[C@H](Cc1ccc(O)cc1)NC(=O)[C@H](CO)NC(=O)[C@H](Cc1c[nH]c2ccccc12)NC(=O)[C@H](Cc1cccc2ccccc12)NC(=O)N1CCOCC1 [Compound 110, (2-9)[N-(N-alpha-Morpholinocarbonyl)-1-Nal^2 -D-Trp^6 -Pro^9 NHEt]LHRH] ({Morpholide-CO}-[1Nal]WSY[dW]LRP-NHEt) | 0.1 nM
CCNC(=O)[C@@H]1CCCN1C(=O)[C@H](CCCNC(=N)N)NC(=O)[C@H](CC(C)C)NC(=O)[C@@H](CCCCNC(=O)c1cccnc1)NC(=O)[C@H](Cc1ccc(O)cc1)NC(=O)[C@H](CO)NC(=O)[C@H](Cc1c[nH]c2ccccc12)NC(=O)[C@H](Cc1ccccc1)NC(=O)N1CCOCC1 [Compound 117, N-(N-alpha-Morpholinocarbonyl)-Phe-Trp-Ser-Tyr-D-Lys(Nic) -Leu-Arg-ProNHEt] ({Morpholide-CO}-FWSY[dK](Nicotinoyl)LRP-NHEt) | 1.86 nM
CCNC(=O)[C@@H]1CCCN1C(=O)[C@H](CCCN=C(N)N)NC(=O)[C@H](CC(C)C)NC(=O)[C@@H](CCCCNC(=O)c1cccnc1)NC(=O)[C@H](Cc1ccc(O)cc1)NC(=O)[C@H](CO)NC(=O)[C@H](Cc1c[nH]c2ccccc12)NC(=O)CCc1ccc(F)cc1 [Compound 119, N-(3-(4-Fluorophenyl)propionyl)-Trp-Ser-Tyr-D-Lys(Nic) -Leu-Arg-Pro-NHEt] ({Propanoyl(3-(4-F-phenyl))}-WSY[dK](Nicotinoyl)LRP-NHEt) | 0.347 nM
CCNC(=O)[C@@H]1CCCN1C(=O)[C@H](CCCN=C(N)N)NC(=O)[C@H](CC(C)C)NC(=O)[C@@H](Cc1c[nH]c2ccccc12)NC(=O)[C@H](Cc1ccc(O)cc1)NC(=O)[C@H](CO)N(C)C(=O)[C@@H](Cc1c[nH]c2ccccc12)NC(=O)CCc1ccc(F)cc1 [Compound 121] ({Propanoyl(3-(4-F-phenyl))}-[dW][NMeS]Y[dW]LRP-NHEt) | 0.0955 nM
CCNC(=O)[C@@H]1CCCN1C(=O)[C@H](CCCN=C(N)N)NC(=O)[C@H](CC(C)C)NC(=O)[C@@H](CCCCNC(=O)c1cccnc1)NC(=O)[C@H](Cc1ccc(O)cc1)N(C)C(=O)[C@H](CO)NC(=O)[C@@H](Cc1c[nH]c2ccccc12)NC(=O)CCc1ccc(F)cc1 [Compound 122, N-(3-(4-Fluorophenyl)propionyl)-D-Trp-Ser-N-Me-Tyr-D -Lys(Nic)-Leu-Arg-ProNHEt] ({Propanoyl(3-(4-F-phenyl))}-[dW]S[NMeY][dK](Nicotinoyl)LRP-NHEt) | 0.00955 nM
CC(C)C[C@H](NC(=O)[C@@H](Cc1cn(C=O)c2ccccc12)NC(=O)[C@H](Cc1ccc(O)cc1)NC(=O)[C@H](CO)NC(=O)[C@@H](Cc1cn(C=O)c2ccccc12)NC(=O)CCc1ccc(F)cc1)C(=O)N[C@@H](CCCNC(=N)N)C(=O)N1CCC[C@H]1C(=O)N[C@H](C)C(N)=O [Compound 123, N-3-(4-Fluorophenyl)propionyl-D-Trp-(N-indole-formyl)-Ser -Tyr-D-Trp(N-indole-formyl)-Leu-Arg-Pro-D-AlaNH2] ({Propanoyl(3-(4-F-phenyl))}-[dW](For)SY[dW](For)LRP[dA]-NH2) | 0.331 nM
CCNC(=O)[C@@H]1CCCN1C(=O)[C@H](CCCNC(=N)N)NC(=O)[C@H](CC(C)C)NC(=O)[C@@H](Cc1c[nH]c2ccccc12)NC(=O)[C@H](Cc1ccc(O)cc1)NC(=O)[C@H](CO)NC(=O)[C@H](Cc1c[nH]c2ccccc12)NC(=O)[C@H](Cc1ccccc1)NC(=O)NCCc1ccccc1 [Compound 124, (2-9)[N-(N-alpha-Phenethylaminocarbonyl)-Phe^2 -D-Trp^6 -Pro^9 NHEt]LHRH] ({NHPhenethyl-CO}-FWSY[dW]LRP-NHEt) | 0.347 nM
CCNC(=O)[C@@H]1CCCN1C(=O)[C@H](CCCNC(=N)N)NC(=O)[C@H](CC(C)C)NC(=O)[C@@H](Cc1c[nH]c2ccccc12)NC(=O)[C@H](Cc1ccc(O)cc1)NC(=O)[C@H](CO)NC(=O)[C@H](Cc1c[nH]c2ccccc12)NC(=O)[C@H](Cc1ccccc1)NC(=O)NC1CCCCC1 [Compound 125, (2-9)[N-(N-alpha-Cyclohexylaminocarbonyl)-Phe^2 -D-Trp^6 -Pro^9 NHEt]LHRH] ({NHcHex-CO}-FWSY[dW]LRP-NHEt) | 0.251 nM
CCNC(=O)N[C@@H](Cc1ccccc1)C(=O)N[C@@H](Cc1c[nH]c2ccccc12)C(=O)N[C@@H](CO)C(=O)N[C@@H](Cc1ccc(O)cc1)C(=O)N[C@H](Cc1c[nH]c2ccccc12)C(=O)N[C@@H](CC(C)C)C(=O)N[C@@H](CCCNC(=N)N)C(=O)N1CCC[C@H]1C(=O)NCC [Compound 127, (2-9)[N-(N-alpha-Ethylaminocarbonyl)-Phe^2 -D-Trp^6 -Pro^9 NHEt]LHRH] ({NHEt-CO}-FWSY[dW]LRP-NHEt) | 0.2 nM
CCNC(=O)[C@@H]1CCCN1C(=O)[C@H](CCCNC(=N)N)NC(=O)[C@H](CC(C)C)NC(=O)[C@@H](Cc1c[nH]c2ccccc12)NC(=O)[C@H](Cc1ccc(O)cc1)NC(=O)[C@H](CO)NC(=O)[C@H](Cc1c[nH]c2ccccc12)NC(=O)[C@H](Cc1ccccc1)NS(=O)(=O)N1CCN(C)CC1 [Compound 129, N-(N-alpha-(N-Methylpiperazinosulfonyl))-Phe-Trp-Ser-Tyr -D-Trp-Leu-Arg-ProNHEt] (X8-WSY[dW]LRP-NHEt) | 1.86 nM
CCNC(=O)[C@@H]1CCCN1C(=O)[C@H](CCCNC(=N)N)NC(=O)[C@H](CC(C)C)NC(=O)[C@@H](Cc1c[nH]c2ccccc12)NC(=O)[C@H](Cc1ccc(O)cc1)NC(=O)[C@H](CO)NC(=O)[C@H](Cc1c[nH]c2ccccc12)NC(=O)[C@H](Cc1ccccc1)NC(=O)CCc1ccc2ccccc2c1 [Compound 133, N-3-(2-Naphthyl)propionyl-Phe-Trp-Ser-Tyr-D-Trp-Leu-Arg -Pro-NHEt] (X3-FWSY[dW]LRP-NHEt) | 1.45 nM
